From US20240018105A1, “TROPOLONE DERIVATIVES AND TAUTOMERS THEREOF FOR IRON REGULATION IN ANIMALS” (Kinesid Therapeutics, Inc., priority 2019, published 2024) come the findings set out here.

Data set [1] in a line: Ligand facilitated Fe(III) efflux from liposomes. The following applies: 10 uM ligand concentration; Table 1. The procedure: Assay 1: Ligand Facilitated Fe(III) Efflux from Liposomes Preparation of POPC (1-palmitoyl-2-oleoyl-sn-glycero-3-phosphocholine): Cholesterol Liposomes:
A 1M buffer solution of MES and Tris was prepared by dissolving 121.14 grams of Tris base and 213.25 grams of MES hydrate in 500 mL of MilliQ water and adjusted to pH7.0 using an […] HCl solution before bringing the total volume of the solution to 1 L. A 500 mM solution of FeCl3 was prepared by dissolving 0.811 grams of anhydrous FeCl3 in 10 mL of a 0.1M H2SO4 aqueous solution. Inside buffer is prepared in a 50 mL falcon tube, which was added with 25 mL of MilliQ water, 1.61 g of sodium citrate, 1.5 mL of the above FeCl3 solution, and 2.5 mL of the 1M MES/Tris HCl buffer (pH=7.0), and finally additional MilliQ H2O to bring to a 50 mL final volume.
Lipid solution is prepared by dissolving 206.9 mg of POPC (1-palmitoyl-2-oleoyl-sn-glycero-3-phosphocholine) and 8.6 mg of cholesterol in 10 mL of ethanol.
The lipids solution and the inside buffer solution are independently loaded into 10 mL luer lock syringes for loading into a virgin cartridge on a Precision Nanosystems NanoAssembler to prepare unilamaller liposomes with the following parameters: 7.5 mL total volume, 1.5:1 mixing ratio of inside buffer:lipids solution, 8 mL/min flow rate, ambient temperature, 0.35 mL start waste, and 0.05 mL of end waste. 7.5 mL of liposomes is harvested for purification on a 6-inch long, 1-inch diameter Sephadex G-50 column wetted in 600 mM sodium ascorbate and 50 mM MES/Tris HCl pH 7.0 buffer. This buffer also serves as the column running buffer. The crude liposome solution is carefully loaded with minimal volume of running buffer above the top of the Sphadex, allowed to enter the matrix, and the column is run with the continued addition of running buffer. The eluting liposomes, observed as a milky and turbid solution, are collected until free iron begins to elute (observed as a deep purple color) and the fractions are pooled for phosphorus quantitation.
Phosphorus content of eluted liposomes was determined by the process outlined below. 10 uL of liposome elution and a running buffer blank are added to a 5 mL glass vial containing 450 uL of a 8.9 M aqueous H2SO4 solution, the mixture is heated to 225° C. for 25 minutes in an aluminum heat block to hydrolyze POPC and cooled for 5 minutes. 200 ul of a 30% hydrogen peroxide aqueous solution is added to each vial and heated to 225° C. for 25 minutes. After cooling, the phosphorus content was determined using an Abcam Phosphate Assay kit, with buffer subtracted phosphorus levels determined against a standard curve of phosphate included in the kit. Liposomes were diluted to 1 mM phosphate in Running Buffer for use in assays after accounting for dilutions made during phospholipid digestion.
Determination of the rate at which a small molecule ligand liberates (transport) Ferric iron from liposomes is performed in clear bottom black 384-well plates on a Spectramax i3x set to read the absorbance at 562 nm in the kinetic mode every 60 seconds for 120 minutes. 1 uL of serially diluted DMSO stock solution of a small molecule ligand is added to wells in triplicate to give the final concentrations of 40, 20, 10, 5, 2.5, and 1.25 uM of the ligand at 80 μL final volume, followed by addition of 1 μL of 100 mM Ferrozine in water to give a final concentration of 1 mM ferrozine. 78 uL of liposomes diluted to 1 mM phosphorus in running buffer is added to wells as quickly as possible (using a digital repeater mulchannel pipette) with the kinetic read initiated as rapidly as possible after addition of liposomes to all wells. Typically, eight compounds at six concentrations are tested in triplicate simultaneously.
Upon completion of kinetic read, the data for individual reads is fitted to a single phase association regression with the equation Y=(Y0−YMax)^(−kX)+YMax, with Y being the 562 absorbance value and X being time in minutes. […]

Data set [2] relates to DMT1-deficient Caco-2 cells. The experiment in a line: shDMT1-Caco2 55Fe transport assay. Type of data set: cell-based. Conditions: Caco-2. From the text: Assay 2: shDMT1-Caco2 ^55Fe Transport Assay to Assess Ligand Ability in Transporting Fe (III)
Cells: DMT1-deficient Caco-2 cells (alias: “shDMT1,” or “4A” cells) were from Grillo et al. Science, 2017, and were cryopreserved in liquid nitrogen prior to use.
Reagents and supplies: ^55FeCl3 was obtained from PerkinElmer (Boston, MA). Iron(III) chloride (FeCl3) hexahydrate was obtained from Sigma. Dulbecco's Modified Eagle Medium (DMEM), fetal bovine serum (FBS), L-glutamine, MEM nonessential amino acids, penicillin-streptomycin, G418, formic acid, methanol, high-purity water, ammonium formate, dimethyl sulfoxide (DMSO) were purchased from Fisher Scientific. Propranolol, atenolol and carbutamide were obtained from Sigma-Aldrich Chemical Company (St Louis, MO). Scintillation cocktail was obtained from Research Product International Co. (Mount Prospect, IL). Stericup filter system (PES membrane, 0.22 um pore size) was purchased from Fisher Scientific. Coming item #3378 24-well transwell insert plates. Test articles: known compounds hinokitiol and deferiprone were purchased from Sigma. They are tested side by side with the small molecule ligands disclosed in this application. DMSO stocks (10 mM, which is 1,000× of the 10 μM dose level) of hinokitiol or test articles were prepared. A stock solution of 25 mM deferiprone in DMSO was prepared. The DMSO stock solutions were stored at −20° C. or below when not in use.
The growth medium was prepared according to the following table
Apical media (serum free DMEM, 10 mM MES, pH 6.5) was prepared. Apical master mix media was prepared fresh with the addition of 200 nM ^55Fe before each experiment. For the negative control propranolol and atenolol wells, 200 nM of non-radioactive iron was used.
The basolateral media was serum-free DMEM, 10 mM HEPES, 2% bovine serum albumin (BSA), pH 7.4.
For each experiment, cells were seeded into the 24-well transwell plates (0.5 mL of 50,000 cells/mL) with growth media. The basolateral companion plate was loaded with 1 mL of growth media. After 12-24 hr, both the apical and basolateral chamber were replaced with growth media. The apical media was changed 3× per week for 21-28 days, including a media change exactly 48 hr before the assay date.
On the assay day, the TEER values were measured and the average TEER values was obtained. Individual wells with TEER vaule >35% lower than the average of all wells were excluded. For the qualified wells, the apical layer (twice) and basolaterial (once) chambers were washed with PBS. The basolateral companion plate was then filled with 1 mL of basolateral media. Via addition down the side-wall of the apical well, 300 μL per well of the apical assay master mix, with the indicated dose level of test article, was added. Each dose was tested in triplicate. The plates were incubated (5% CO2 and 90% humidity at 37° C.) for the indicated timepoints. At each indicated timepoint, the basolateral supernatant was gently mixed via pipetting, and 200 μL of the basolateral supernatant was transferred to scintillation vials. To each scintillation counting vial, 5 mL of scintillation cocktail fluid was added. For each scintillation vial, the radioactivity (CPM) was determined with liquid scintillation counter LS6500. The counting time per vial was 5 min.
All raw CPM values are divided by the average value of blank DMSO solution to give a fold of change above the DMSO value. The mean and standard deviation of each compound at each concentration level and at each time point measured was calculated to give the fold change (fc) value.
For rank order compounds, the fc value of a ligand at 4 h time point is further divided by the fold change (fc) value of hinokitiol (a positive control compound) at an equimolar concentration to arrive at the FC (normalized fold of change) value. Data reported in Tables 1 and 2 is 4 hr time point FC=fc-ligand @ 3 uM/fc-hino @ 3 uM, and FC hino=1.

The structures appear in SMILES notation.

Regarding `O=c1cccc(-c2cncc(F)c2F)cc1O` [Ex.2, 4-(4,5-difluoropyridin-3-yl)-2-hydroxycyclohepta-2,4,6-trien-1-one], in data set [1], the “Liposome Fe transport kefflux at 10 10 μM” value was 0.1-5. For the same compound, the “Caco2 shDMT1 transport FC @ 3 μM, 4h” value in data set [2] is on record as 0.01-0.5.
The matching figures for `N#Cc1cncc(-c2cccc(=O)c(O)c2)c1` [Ex.4, 5-(6-hydroxy-5-oxocyclohepta-1,3,6-trien-1-yl)nicotinonitrile]: 0.1-5 and 0.01-0.5.
Take `COc1cc(-c2cccc(=O)c(O)c2)c(F)cn1` [Ex.6, 4-(5-fluoro-2-methoxypyridin-4-yl)-2-hydroxycyclohepta-2,4,6-trien-1-one]: the “Liposome Fe transport kefflux at 10 10 μM” value in data set [1] is 7.5-10. The “Caco2 shDMT1 transport FC @ 3 μM, 4h” value in data set [2] is reported as 0.01-0.5.
Regarding `COc1cc(-c2cccc(=O)c(O)c2)ccn1` [Ex.8, 2-hydroxy-4-(2-methoxypyridin-4-yl)cyclohepta-2,4,6-trien-1-one], in data set [1], the “Liposome Fe transport kefflux at 10 10 μM” value was 7.5-10. In addition, the “Caco2 shDMT1 transport FC @ 3 μM, 4h” value in data set [2] was 0.01-0.5.
With `Cc1cnccc1-c1cccc(=O)c(O)c1` [Ex.9, 2-hydroxy-4-(3-methylpyridin-4-yl)cyclohepta-2,4,6-trien-1-one], the “Liposome Fe transport kefflux at 10 10 μM” value in data set [1] is given as 0.1-5. Further, the “Caco2 shDMT1 transport FC @ 3 μM, 4h” value in data set [2] is reported as 0.01-0.5.
`COc1cncc(-c2cccc(=O)c(O)c2)c1` [Ex.10, 2-hydroxy-4-(5-methoxypyridin-3-yl)cyclohepta-2,4,6-trien-1-one]: the “Liposome Fe transport kefflux at 10 10 μM” value in data set [1] is 0.1-5. In data set [2], the “Caco2 shDMT1 transport FC @ 3 μM, 4h” value is listed as 0.01-0.5.
With `O=c1cccc(-c2cccnc2)cc1O` [Ex.11, 2-hydroxy-4-(pyridin-3-yl)cyclohepta-2,4,6-trien-1-one], the “Liposome Fe transport kefflux at 10 10 μM” value in data set [1] was 0.1-5. For the same compound, the “Caco2 shDMT1 transport FC @ 3 μM, 4h” value in data set [2] was 0.01-0.5.
Regarding `COc1cc(-c2cccc(=O)c(O)c2)cnc1OC` [Ex.12, 4-(5,6-dimethoxypyridin-3-yl)-2-hydroxycyclohepta-2,4,6-trien-1-one], in data set [1], the “Liposome Fe transport kefflux at 10 10 μM” value is on record as 7.5-10. The “Caco2 shDMT1 transport FC @ 3 μM, 4h” value in data set [2] is recorded as 0.5-1.
`O=c1ccc(-c2cncc(F)c2)ccc1O` [Ex.15, 5-(5-fluoropyridin-3-yl)-2-hydroxycyclohepta-2,4,6-trien-1-one]: in data set [1], the “Liposome Fe transport kefflux at 10 10 μM” value was 5-7.5. The “Caco2 shDMT1 transport FC @ 3 μM, 4h” value in data set [2] was 0.01-0.5.
As for `O=c1cccc(-c2cncc(Cl)c2)cc1O` [Ex.17, 4-(5-chloropyridin-3-yl)-2-hydroxycyclohepta-2,4,6-trien-1-one], the “Liposome Fe transport kefflux at 10 10 μM” value in data set [1] is 5-7.5. For the same compound, the “Caco2 shDMT1 transport FC @ 3 μM, 4h” value in data set [2] is 0.01-0.5.
The matching figures for `Cc1ccc(-c2cccc(=O)c(O)c2)cn1` [Ex.18, 2-hydroxy-4-(6-methylpyridin-3-yl)cyclohepta-2,4,6-trien-1-one]: 0.1-5 and 0.01-0.5.
Take `COc1ccc(-c2cccc(=O)c(O)c2)cn1` [Ex.19, 2-hydroxy-4-(6-methoxypyridin-3-yl)cyclohepta-2,4,6-trien-1-one]: the “Liposome Fe transport kefflux at 10 10 μM” value in data set [1] is listed as 0.1-5. The “Caco2 shDMT1 transport FC @ 3 μM, 4h” value in data set [2] was 0.01-0.5.
For `O=c1ccccc(-c2cncc(F)c2)c1O` [Ex.24, 2-(5-fluoropyridin-3-yl)-7-hydroxycyclohepta-2,4,6-trien-1-one], in data set [1], the “Liposome Fe transport kefflux at 10 10 μM” value is 7.5-10. Besides, the “Caco2 shDMT1 transport FC @ 3 μM, 4h” value in data set [2] was 0.01-0.5.
In the case of `O=c1cccc(-c2cncnc2)cc1O` [Ex.29, 2-hydroxy-4-(pyrimidin-5-yl)cyclohepta-2,4,6-trien-1-one], the “Liposome Fe transport kefflux at 10 10 μM” value in data set [1] is given as 5-7.5. Further, the “Caco2 shDMT1 transport FC @ 3 μM, 4h” value in data set [2] is reported as 0.01-0.5.
For `COc1ncc(-c2cccc(=O)c(O)c2)cn1` [Ex.30, 2-hydroxy-4-(2-methoxypyrimidin-5-yl)cyclohepta-2,4,6-trien-1-one], the “Liposome Fe transport kefflux at 10 10 μM” value in data set [1] is reported as 0.1-5. In addition, the “Caco2 shDMT1 transport FC @ 3 μM, 4h” value in data set [2] is 0.01-0.5.
`Cc1ncc(-c2ccc(O)c(=O)cc2)cn1` [Ex.33, 2-hydroxy-5-(2-methylpyrimidin-5-yl)cyclohepta-2,4,6-trien-1-one]: the “Liposome Fe transport kefflux at 10 10 μM” value in data set [1] was 0.1-5. Moreover, in data set [2], the “Caco2 shDMT1 transport FC @ 3 μM, 4h” value is on record as 0.01-0.5.
In the case of `Cc1ncc(-c2ccccc(=O)c2O)cn1` [Ex.34, 2-hydroxy-3-(2-methylpyrimidin-5-yl)cyclohepta-2,4,6-trien-1-one], the “Liposome Fe transport kefflux at 10 10 μM” value in data set [1] is 0.1-5. The “Caco2 shDMT1 transport FC @ 3 μM, 4h” value in data set [2] was 0.01-0.5.
As to `Cc1ncc(-c2ccc(O)c(=O)cc2)c(C)n1.O=C(O)C(F)(F)F` [Ex.35, 5-(2,4-dimethylpyrimidin-5-yl)-2-hydroxycyclohepta-2,4,6-trien-1-one], the “Liposome Fe transport kefflux at 10 10 μM” value in data set [1] is 7.5-10. In data set [2], the “Caco2 shDMT1 transport FC @ 3 μM, 4h” value was 0.01-0.5.
Turning to `Cc1ncc(-c2ccccc(=O)c2O)c(C)n1` [Ex.36, 3-(2,4-dimethylpyrimidin-5-yl)-2-hydroxycyclohepta-2,4,6-trien-1-one], the “Liposome Fe transport kefflux at 10 10 μM” value in data set [1] is listed as 5-7.5. Also, in data set [2], the “Caco2 shDMT1 transport FC @ 3 μM, 4h” value was 0.01-0.5.
